{"source": "patent EP0107890B1", "about": "“Mammalian PGRF” (THE SALK INSTITUTE FOR BIOLOGICAL STUDIES, priority 1982, dated 1986)", "key": {"pituitary cells": {"test_system": "pituitary cells", "experiment": "in vitro growth hormone release assay in rat pituitary cell cultures (immunoreactive GH by radioimmunoassay)", "type": "cell-based", "description": "To determine the effectiveness of the peptides to promote the release of growth hormone, in vitro assays are carried out using synthetic PGRF(1-40) of Example II in side-by-side comparison with equimolar concentrations of the extracted and purified native PGRF (1-40) and of a GRF Reference Standard having a known effectiveness to promote the release of growth hormone from pituitary cells. The GRF Reference standard is described and defined in Brazeau, et al., Endocrinology, Vol. 110, A538(1982) and is an amount of a preparation of rat hypothalamic origin that produces a half-maximal response in terms of GH release in a pituitary cell monolayer bioassay. Cultures are used which include cells of rat pituitary glands removed some four to five days previously. Both cultures of a defined standard medium and cultures which are considered optimal for the secretion of growth hormone are used for the comparative testing, in the general manner described in Brazeau, et al. Regulatory Peptides, 1, 255, 1981. Incubation with the substance to be tested is carried out for 3 to 4 hours, and aliquots of the culture medium are removed and processed to measure their contents in immunoreactive GH(ir GH) by a well-characterized radioimmunoassay."}, "normal male rats": {"test_system": "normal male rats", "experiment": "in vivo secretion of pituitary growth hormone after injection into anesthetized rats", "details": "injected into rats", "from_the_text": "In addition to the in vitro tests for secretion of growth hormone, in vivo experiments were also run by injecting the synthetic peptide into normal male rats about 200 g. body weight, anesthetized with pentobarbital."}}, "note": "Where no end group is shown, it is not given here."}
{"substance": "PGRF(1-40) (YADAIFTNSYRKVLGQLSARKLLQDIMSRQQGESNQERGA-OH; UniProt P01286 32-71, looked up, fragment) [Example II]", "values": [{"measurement": "ED50", "setting": "pituitary cells; GH release from rat pituitary cell cultures, incubation 3 to 4 hours", "value": "about 113 picograms"}, {"measurement": "biological activity compared with the native peptide", "setting": "pituitary cells; in equimolar ratios, versus extracted and purified native PGRF (1-40)", "value": "full biological activity of the native peptide"}, {"measurement": "GH-releasing activity in vivo", "setting": "normal male rats", "value": "powerful stimulator of the secretion of pituitary growth hormone"}]}
